In US7507748B2, “Substituted aryl-amine derivatives and methods of use” (Amgen Inc., priority 2004, dated 2009) one finds IC50 data, which are given here for 31 compounds.

The test system of this assay is Human Umbilical Vein Endothelial cells. Kind of assay: VEGF-stimulated HUVEC proliferation assay. It counts as cell-based. As to conditions: 72 h, CyQuant, read-out: inhibited VEGF-stimulated HUVEC proliferation at a level. The protocol: Human Umbilical Vein Endothelial cells are purchased from Clonetics, Inc., as cryopreserved cells harvested from a pool of donors. These cells, at passage 1, are thawed and expanded in EBM-2 complete medium, until passage 2 or 3. The cells are trypsinized, washed in DMEM+10% FBS+antibiotics, and spun at 1000 rpm for 10 min. Prior to centrifugation of the cells, a small amount is collected for a cell count. After centrifugation, the medium is discarded, and the cells are resuspended in the appropriate volume of DMEM+10% FBS+antibiotics to achieve a concentration of 3×10^5 cells/mL. Another cell count is performed to confirm the cell concentration. The cells are diluted to 3×10^4 cells/mL in DMEM+10% FBS+antibiotics, and 100 μL of cells are added to a 96-well plate. The cells are incubated at 37° C. for 22 h.
Prior to the completion of the incubation period, compound dilutions are prepared. Five-point, five-fold serial dilutions are prepared in DMSO, at concentrations 400-fold greater than the final concentrations desired. 2.5 μL of each compound dilution are diluted further in a total of 1 mL DMEM+10% FBS+antibiotics (400× dilution). Medium containing 0.25% DMSO is also prepared for the 0 μM compound sample. At the 22-hour timepoint, the medium is removed from the cells, and 100 μL of each compound dilution is added. The cells are incubated at 37° C. for 2-3 h.
During the compound pre-incubation period, the growth factors are diluted to the appropriate concentrations. Solutions of DMEM+10% FBS+antibiotics, containing either VEGF or bFGF at the following concentrations: 50, 10, 2, 0.4, 0.08, and 0 ng/mL are prepared. For the compound-treated cells, solutions of VEGF at 550 ng/mL or bFGF at 220 ng/mL for 50 ng/mL or 20 ng/mL final concentrations, respectively, are prepared since 10 μL of each will be added to the cells (110 μL final volume). At the appropriate time after adding the compounds, the growth factors are added. VEGF is added to one set of plates, while bFGF is added to another set of plates. For the growth factor control curves, the media on wells B4-G6 of plates 1 and 2 are replaced with media containing VEGF or bFGF at the varying concentrations (50-0 ng/mL). The cells are incubated at 37° C. for an additional 72 h.
At the completion of the 72 h incubation period, the medium is removed, and the cells are washed twice with PBS. After the second wash with PBS, the plates are tapped gently to remove excess PBS, and the cells are placed at −70° C. for at least 30 min. The cells are thawed and analyzed using the CyQuant fluorescent dye (Molecular Probes C-7026), following the manufacturer's recommendations. The plates are read on a Victor/Wallac 1420 workstation at 485 nm/530 nm (excitation/emission). Raw data are collected and analyzed using a 4-parameter fit equation in XLFit. IC50 values are then determined.
As to `CC1(C)CN(C(=O)[C@H]2CCCO2)Cc2cc(NC(=O)c3cccnc3Nc3ccc4ccncc4c3)ccc21` (stereo in doubt) [Example 74, N-[4,4-Dimethyl-2-(tetrahydro-furan-2-carbonyl)-1,2,3,4-tetrahydro-isoquinolin-7-yl]-2-(isoquinolin-7-ylamino)-nicotinamide], the IC50 was under 1000 nM.
The result for `O=C(Nc1ccc(C(O)(C(F)(F)F)C(F)(F)F)cc1)c1cccnc1Nc1ccc2ccncc2c1` [Example 43, 2-(Isoquinolin-7-ylamino)-N-[4-(2,2,2-trifluoro-1-hydroxy-1-trifluoromethyl-ethyl)-phenyl]-nicotinamide] reads under 1000 nM; that for `Cc1cc(NC(=O)c2cccnc2Nc2ccc3ccncc3c2)ccc1N1CCCC1` [Example 62, 2-(isoquinolin-7-ylamino)-N-(3-methyl-4-(pyrrolidin-1-yl)phenyl)nicotinamide], under 1000 nM; that for `CC(C)(C)OC(=O)N1Cc2cc(NC(=O)c3cccnc3Nc3cnc4ccncc4c3)ccc2C(C)(C)C1` [Example 36, 4,4-Dimethyl-7-{[2-([1,6]naphthyridin-3-ylamino)-pyridine-3-carbonyl]-amino}-3,4-dihydro-1H-isoquinoline-2-carboxylic acid tert butyl ester], under 1000 nM.
The result for `CCOC(=O)C(C)c1ccc(NC(=O)c2cccnc2Nc2ccc3ccncc3c2)cc1` (racemic) [Example 52, 2(R,S)-(4-{[2-(Isoquinolin-7-ylamino)-pyridine-3-carbonyl]-amino}-phenyl)-propionic acid ethyl ester] reads under 1000 nM; that for `CC(C)(C)c1ccc(NC(=O)c2cccnc2Nc2cccc3cnccc23)cc1` [Example 67, N-(4-tert-Butyl-phenyl)-2-(isoquinolin-5-ylamino)-nicotinamide], under 1000 nM.
For `O=C1CSc2ccc(NC(=O)c3cccnc3Nc3ccc4ccncc4c3)cc2N1` [Example 55, 2-(isoquinolin-7-ylamino)-N-(3-oxo-3,4-dihydro-2H-1,4-benzothiazin-6-yl)nicotinamide] the value was under 1000 nM; for `Cc1nc2cc(NC(=O)c3cccnc3Nc3ccc4ccncc4c3)ccc2s1` [Example 39, 2-(isoquinolin-7-ylamino)-N-(2-methyl-1,3-benzothiazol-5-yl)nicotinamide], under 1000 nM.
In the case of `CC1(C)CNc2cc(NC(=O)c3cccnc3Nc3ccc4ccncc4c3)ccc21` [Example 32, N-(3,3-Dimethyl-2,3-dihydro-1H-indol-6-yl)-2-(isoquinolin-7-ylamino)-nicotinamide], the IC50 is under 1000 nM.
For `CC1(C)CCNc2cc(NC(=O)c3ccccc3Nc3ccc4ncncc4c3)ccc21` [Example 30, N-(4,4-Dimethyl-1,2,3,4-tetrahydro-quinolin-7-yl)-2-(quinazolin-6-ylamino)-benzamide] the value was under 1000 nM.
For `CC(C)(C)c1ccc(NC(=O)c2cccnc2Nc2ccc3ccncc3c2)cc1` [Example 14, N-(4-tert-Butyl-phenyl)-2-(isoquinolin-7-ylamino)-nicotinamide] the value was under 1000 nM; for `O=C(Nc1ccc(C(O)(C(F)(F)F)C(F)(F)F)cc1)c1cccnc1Nc1cnc2ccncc2c1` [Example 38, 2-([1,6]Naphthyridin-3-ylamino)-N-[4-(2,2,2-trifluoro-1-hydroxy-1-trifluoromethyl-ethyl)-phenyl]-nicotinamide], under 1000 nM; for `CC(C)(C)c1ccc(NC(=O)c2cccnc2Nc2ccc3ccncc3c2)cn1` [Example 42, N-(6-tert-Butyl-pyridin-3-yl)-2-(isoquinolin-7-ylamino)-nicotinamide], under 1000 nM.
For `O=C(Nc1ccc(Cl)c(C(F)(F)F)c1)c1cccnc1Nc1ccc2ccncc2c1` [Example 34, N-(4-Chloro-3-trifluoromethyl-phenyl)-2-(isoquinolin-7-ylamino)-nicotinamide] the value was under 1000 nM; for `CC(C)(C)c1ccc(NC(=O)c2cccnc2Nc2cnc3ccncc3c2)cc1` [Example 35, N-(4-tert-Butyl-phenyl)-2-([1,6]naphthyridin-3-ylamino)-nicotinamide], under 1000 nM.
Take `CCC(C)(C)c1ccc(NC(=O)c2cccnc2Nc2ccc3ccncc3c2)cc1` [Example 46, N-(4-(1,1-Dimethyl-propyl)-phenyl)-2-(isoquinolin-7-ylamino)-nicotinamide]: the IC50 is under 1000 nM.
For `CC(=O)N1Cc2cc(NC(=O)c3cccnc3Nc3ccc4ccncc4c3)ccc2C(C)(C)C1` [Example 13, N-(2-Acetyl-4,4-dimethyl-1,2,3,4-tetrahydro-isoquinolin-7-yl)-2-(isoquinolin-7-ylamino)-nicotinamide] the value was under 1000 nM; for `O=C(Nc1ccc(OC(F)(F)F)cc1)c1cccnc1Nc1ccc2ccncc2c1` [Example 61, 2-(isoquinolin-7-ylamino)-N-(4-(trifluoromethoxy)phenyl)nicotinamide], under 1000 nM.
The result for `CC(C)(C)c1cc(NC(=O)c2cccnc2Nc2ccc3ccncc3c2)no1` [Example 15, N-(5-tert-Butyl-isoxazol-3-yl)-2-(isoquinolin-7-ylamino)-nicotinamide] reads under 1000 nM; that for `CN1CCCC1COc1cc(NC(=O)c2cccnc2Nc2cccc3cnccc23)cc(C(F)(F)F)c1` (stereo not shown) [Example 68, 2-(Isoquinolin-5-ylamino)-N-[3-(1-methyl-pyrrolidin-2-ylmethoxy)-5-trifluoromethyl-phenyl]-nicotinamide], under 1000 nM.
The result for `CC(C)(C)c1ccc(NC(=O)c2cccnc2Nc2ccc3nc(N)nc(N)c3c2)cc1` [Example 66, 2-(2,4-diaminoquinazolin-6-ylamino)-N-(4-tert-butylphenyl)nicotinamide] reads under 1000 nM.
Regarding `COc1cc(NC(=O)c2cccnc2Nc2ccc3ccncc3c2)cc(C(F)(F)F)c1` [Example 33, 2-(Isoquinolin-7-ylamino)-N-(3-methoxy-5-trifluoromethyl-phenyl)-nicotinamide], the IC50 was under 1000 nM.
On to `Cc1cc(NC(=O)c2cccnc2Nc2ccc3ccncc3c2)ccc1C(F)(F)C(F)(F)F` [Example 48, 2-(Isoquinolin-7-ylamino)-N-(3-methyl-4-pentafluoroethyl-phenyl)-nicotinamide], for which the IC50 was under 1000 nM.
For `CC(C(=O)O)c1ccc(NC(=O)c2cccnc2Nc2ccc3ccncc3c2)cc1` (racemic) [Example 53, 2(R,S)-(4-{[2-(Isoquinolin-7-ylamino)-pyridine-3-carbonyl]-amino}-phenyl)-propionic acid] the value was under 1000 nM.
The result for `CC(C)(C)c1ccc(NC(=O)c2cccnc2Nc2cccc3ncccc23)cc1` [Example 72, N-(4-(1,1-dimethylethyl)phenyl)-2-(5-quinolinylamino)-3-pyridinecarboxamide] reads under 1000 nM; that for `CC1(C)CNCc2cc(NC(=O)c3cccnc3Nc3ccc4ncncc4c3)ccc21` [Example 51, N-(4,4-Dimethyl-1,2,3,4-tetrahydro-isoquinolin-7-yl)-2-(quinazolin-6-ylamino)-nicotinamide], under 1000 nM; that for `CC(C)c1ccc(NC(=O)c2cccnc2Nc2ccc3ccncc3c2)cc1` [Example 44, N-(4-Isopropyl-phenyl)-2-(isoquinolin-7-ylamino)-nicotinamide], under 1000 nM.
On to `Cc1ccc(NC(=O)c2cccnc2Nc2ccc3ccncc3c2)cc1Cl` [Example 60, N-(3-chloro-4-methylphenyl)-2-(isoquinolin-7-ylamino)nicotinamide], for which the IC50 was under 1000 nM.
For `CC1(C)CCNc2cc(NC(=O)c3cccnc3Nc3ccc4ncncc4c3)ccc21` [Example 57, N-(4,4-Dimethyl-1,2,3,4-tetrahydro-quinolin-7-yl)-2-(quinazolin-6-ylamino)-nicotinamide] the value was under 1000 nM.
Turning to `CC1(C)CCNc2cc(NC(=O)c3ccccc3Nc3ccc4ccncc4c3)ccc21` [Example 28, N-(4,4-Dimethyl-1,2,3,4-tetrahydro-quinolin-7-yl)-2-(isoquinolin-7-ylamino)-benzamide], the IC50 was under 1000 nM.
`CC(C)(C)c1cc(NC(=O)c2cccnc2Nc2ccc3[nH]nnc3c2)no1` [Example 25, 2-(1H-benzo[d][1,2,3]triazol-5-ylamino)-N-(5-tert-butylisoxazol-3-yl)nicotinamide]: the IC50 was under 1000 nM.
